Here are results for nine molecules from ChEMBL document CHEMBL1143748, “'Bridged' stilbene derivatives as selective cyclooxygenase-1 inhibitors” (Bioorg Med Chem, 2007).

Assay [1] can be described thus: Relaxing effect on guinea pig arteria pulmonalis ring assessed as reduction of force of contraction at 100 uM. Set-up: scale not given: the % may be the effect or the level left. It is filed as functional, Cavia porcellus.
For assay [2], the target named is T1, Prostaglandin G/H synthase 1 (Ovis aries, UniProt P05979).
T1 sequence (P05979 whole entry): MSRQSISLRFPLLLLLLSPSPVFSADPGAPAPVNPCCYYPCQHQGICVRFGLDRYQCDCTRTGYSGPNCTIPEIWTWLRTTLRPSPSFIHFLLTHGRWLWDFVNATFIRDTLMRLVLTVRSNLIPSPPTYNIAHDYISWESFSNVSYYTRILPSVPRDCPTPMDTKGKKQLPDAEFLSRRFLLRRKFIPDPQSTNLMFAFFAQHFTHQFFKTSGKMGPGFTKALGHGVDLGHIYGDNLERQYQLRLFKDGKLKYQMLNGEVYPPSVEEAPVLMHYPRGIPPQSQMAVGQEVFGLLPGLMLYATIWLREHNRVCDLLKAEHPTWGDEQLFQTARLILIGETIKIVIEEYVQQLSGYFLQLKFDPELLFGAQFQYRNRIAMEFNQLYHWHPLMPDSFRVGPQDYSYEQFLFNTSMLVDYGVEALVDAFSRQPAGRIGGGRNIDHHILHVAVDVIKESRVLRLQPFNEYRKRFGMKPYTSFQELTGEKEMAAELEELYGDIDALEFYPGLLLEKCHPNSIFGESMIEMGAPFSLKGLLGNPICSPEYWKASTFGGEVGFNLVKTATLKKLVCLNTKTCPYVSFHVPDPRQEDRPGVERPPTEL
The experiment in a line: Inhibition of ovine COX1 by measuring PGE2.

The test system of the next assay is Ileum. Briefly: Relaxing effect on guinea pig terminal ileum ring assessed as reduction of force of contraction at 100 uM. It is filed as functional, Cavia porcellus. Set-up: scale not given: the % may be the effect or the level left.
The subject of a further assay is Aorta. Briefly: Relaxing effect on guinea pig aorta ring assessed as reduction of force of contraction at 100 uM. Set-up: scale not given: the % may be the effect or the level left. It is filed as functional, Cavia porcellus.
Assay [3] has as its target T2, Prostaglandin G/H synthase 2 (Homo sapiens, UniProt P35354).
T2 sequence (P35354 whole entry): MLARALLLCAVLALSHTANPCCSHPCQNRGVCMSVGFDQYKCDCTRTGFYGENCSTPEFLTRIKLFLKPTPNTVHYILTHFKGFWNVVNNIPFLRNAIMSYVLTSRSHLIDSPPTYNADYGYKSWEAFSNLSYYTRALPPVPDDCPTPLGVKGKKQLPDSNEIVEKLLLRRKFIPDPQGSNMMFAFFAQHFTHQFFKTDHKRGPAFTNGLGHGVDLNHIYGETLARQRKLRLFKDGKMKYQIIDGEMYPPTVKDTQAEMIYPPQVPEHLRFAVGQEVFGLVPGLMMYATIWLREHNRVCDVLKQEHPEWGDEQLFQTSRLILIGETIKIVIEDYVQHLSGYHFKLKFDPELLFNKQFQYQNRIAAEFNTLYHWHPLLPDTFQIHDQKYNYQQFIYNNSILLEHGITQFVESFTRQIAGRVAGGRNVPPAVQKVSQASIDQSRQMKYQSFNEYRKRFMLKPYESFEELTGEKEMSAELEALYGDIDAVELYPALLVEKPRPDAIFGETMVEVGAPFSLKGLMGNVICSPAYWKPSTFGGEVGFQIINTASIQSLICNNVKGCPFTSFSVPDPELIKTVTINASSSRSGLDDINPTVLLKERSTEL
The experiment in a line: Inhibition of human recombinant COX2 by measuring PGE2.

A short description of assay [4]: Selectivity for ovine COX1 over human recombinant COX2.

As for `Oc1ccc(/C=C/c2cc(O)cc(O)c2)cc1` [RESVERATROL], the Activity in assay [1] is -53.56%; in the assay with Ileum, -64.77%; with Aorta it was -55.15%. Besides, the IC50 (commonly the point on the concentration scale where inhibition reaches its midpoint) in assay [2] is 535 nM.
For `COc1ccc2c(c1)CCC(c1ccc(OC)c(OC)c1OC)=C2`, the IC50 was > 100000 nM in assay [3] and 15 nM in assay [2]. Moreover, the Ratio IC50 in assay [4] was > 6670.
As to `COc1ccc(C2=Cc3ccccc3CC2)cc1OC`, the results for the Activity (in assay [1]; with Ileum; in the assay with Aorta) were -41.45%, -45.34% and -15.97%, respectively. Besides, the figures for the IC50 in assay [3] and in assay [2] were > 100000 nM and 61100 nM, respectively. Further, the Ratio IC50 in assay [4] is > 1.63.
As to `COc1ccc2c(c1)CCC(c1ccc(OC)c(OC)c1)=C2`, the IC50 was 30 nM in assay [3] and 380 nM in assay [2]. In addition, the Ratio IC50 in assay [4] came to 0.079.
Regarding `COc1ccc(C2=Cc3ccccc3C2)c(OC)c1OC`, the figures for the Activity (in assay [1]; in the assay on Ileum; in the assay with Aorta) were -11.92%, -35.94% and -3.45%, respectively. Besides, the IC50 turned out to be 1330 nM in assay [3] and 30 nM in assay [2]. In addition, in assay [4], the Ratio IC50 came out at 44.3.
`COc1ccccc1C1=Cc2ccccc2C1`: the results for the Activity (in assay [1]; in the assay with Ileum; in the assay with Aorta) were -26.08%, -40.89% and -35.72%, respectively. Besides, the figures for the IC50 in assay [3] and in assay [2] were 62300 nM and 460 nM, respectively. The Ratio IC50 in assay [4] came out at 135.
As for `C1=C(c2ccc3c(c2)OCO3)CCc2ccccc21`, the IC50 in assay [3] and in assay [2] was > 100000 nM throughout.
Turning to `COc1ccc(C2=Cc3ccccc3CC2)c(OC)c1OC`, the IC50 in assay [3] amounted to 660 nM; in assay [2], 480 nM. The Ratio IC50 in assay [4] is 1.38.
In the case of `C1=C(c2ccc3c(c2)OCO3)Cc2ccccc21`, the Activity in assay [1] is given as -19.82%; in the assay with Ileum, -51.74%; in the assay on Aorta it was -28.08%. The IC50 is > 100000 nM in assay [3] and 12800 nM in assay [2]. Moreover, the Ratio IC50 in assay [4] is > 7.8.
